Experimental data taken from patent US20200255478A1, “NOVEL COMPOUNDS ACTIVATING THE NRF2 PATHWAY” (Almirall, S.A., priority 2017, published 2020).
Read-outs that look alike come from different tables or passages of the source. One block for each compound: values may come before it. Starred links: 1 amine or outer side, 2 acyl side, 3 side chain; linkers in the order of their positions; H or OH if unused. Positions of bridges follow the written chain, without caps; N, C: chain ends. Non-standard residues stand in square brackets, D forms with d. Residues, ends and D or L forms follow the SMILES beside them. *: point of attachment. Phe(4-yl) = O=C([C@H](Cc1ccc([*:3])cc1)N[*:1])[*:2]; X8 = O=C([C@H](Cc1cccc([*:3])c1)N[*:1])[*:2]; mXylylene = c1cc(C[*:1])cc(C[*:2])c1; oXylylene = c1ccc(C[*:2])c(C[*:1])c1; Stearoyl = CCCCCCCCCCCCCCCCCC(=O)*; pXylylene = c1cc(C[*:2])ccc1C[*:1]; βAla = NCCC(=O)O

Molecular target: Keap1-Maltose Binding Protein (MBP tag) (Homo sapiens, UniProt Q14145)
Experiment: Nrf2-Keap1 HTRF (TR-FRET) binding assay: displacement of biotinylated ETGE peptide from Keap1-MBP
[1] = HTRF (TR-FRET), displacement of ETGE-biotin from Keap1-MBP, values banded into grades, read-out: Binding (IC50) ETGE-Keap1

Sequence of Keap1-Maltose Binding Protein (MBP tag) (Q14145 whole entry): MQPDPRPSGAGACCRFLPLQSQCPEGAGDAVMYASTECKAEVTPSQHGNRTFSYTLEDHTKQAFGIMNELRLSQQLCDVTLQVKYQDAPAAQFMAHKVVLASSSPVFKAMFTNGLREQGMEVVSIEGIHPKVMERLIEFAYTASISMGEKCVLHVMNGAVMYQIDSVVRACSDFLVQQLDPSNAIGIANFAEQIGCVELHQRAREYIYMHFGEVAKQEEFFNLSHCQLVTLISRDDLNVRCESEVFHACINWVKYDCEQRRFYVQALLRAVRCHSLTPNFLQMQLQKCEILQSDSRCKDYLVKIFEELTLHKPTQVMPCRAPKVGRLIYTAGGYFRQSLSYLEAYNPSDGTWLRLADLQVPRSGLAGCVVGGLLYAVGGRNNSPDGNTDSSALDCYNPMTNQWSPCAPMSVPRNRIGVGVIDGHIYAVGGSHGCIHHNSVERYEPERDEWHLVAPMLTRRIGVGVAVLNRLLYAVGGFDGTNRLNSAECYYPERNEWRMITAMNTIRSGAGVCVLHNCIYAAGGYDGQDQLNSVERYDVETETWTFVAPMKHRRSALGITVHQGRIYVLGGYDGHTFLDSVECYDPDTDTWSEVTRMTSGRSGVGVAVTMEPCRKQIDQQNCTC

SMILES: CCCCCCCCCCCCCCCCCC(=O)N[C@H]1C[C@H]2C(=O)N[C@@H](CCC(N)=O)C(=O)N[C@H]3CSCc4cccc(c4)CSC[C@H](NC(=O)[C@H](CCC(=O)O)NC(=O)CNC(=O)[C@H]([C@@H](C)O)NC(=O)[C@H](CCC(=O)O)NC(=O)[C@@H]4CCCN4C(=O)[C@H](CC(=O)O)NC3=O)C(=O)N[C@@H](CC(C)C)C(=O)N3CCC[C@@H]3C(=O)N2C1 [Example 74, {[&^1Pro((4S)-NH-Stearyl)-Gln-Cys(&^2)-Asp-Pro-Glu-Thr-Gly-Glu-Cys(&^3)-Leu-D-Pro&^1][&^2(1,3-phenylenediyl)dimethylene&^3]}]
- IC50: < 1 nM

SMILES: CCCCCCCCCCCCCCCCCC(=O)NCCC(=O)N[C@@H](CC(C)C)C(=O)N[C@@H](CCC(N)=O)C(=O)N[C@H]1CSCc2ccccc2CSC[C@@H](C(=O)N[C@@H](CC(C)C)C(=O)N2CCC[C@H]2C(N)=O)NC(=O)[C@H](CCC(=O)O)NC(=O)CNC(=O)[C@H]([C@@H](C)O)NC(=O)[C@H](CCC(=O)O)NC(=O)[C@@H]2CCCN2C(=O)[C@H](CC(=O)O)NC1=O [Example 48, {[Stearyl-βAla-Leu-Gln-Cys(&^1)-Asp-Pro-Glu-Thr-Gly-Glu-Cys(&^2)-Leu-Pro-NH2][&^1(1,2-phenylenediyl)dimethylene&^2]}] ({Stearoyl-βAla}-LQCDPETGECLP-NH2; linker 3-10 via oXylylene)
- IC50 [1]: 1 to 100 nM

SMILES: CCCCCCCCCCCCCCCCCC(=O)N[C@H]1C[C@H]2C(=O)N[C@@H](CCC(N)=O)C(=O)N[C@H]3CSCC4(CCOCC4)CSC[C@H](NC(=O)[C@H](CCC(=O)O)NC(=O)CNC(=O)[C@H]([C@@H](C)O)NC(=O)[C@H](CCC(=O)O)NC(=O)[C@@H]4CCCN4C(=O)[C@H](CC(=O)O)NC3=O)C(=O)N[C@@H](CC(C)C)C(=O)N3CCC[C@@H]3C(=O)N2C1 [Example 100, {[&^1Pro((4S)-NH-Stearyl)-Gln-Cys(&^2)-Asp-Pro-Glu-Thr-Gly-Glu-Cys(&^3)-Leu-D-Pro&^1][&^2(tetrahydro-2H-pyran-4,4-diyl)dimethylene&^3]}]
- IC50: 1 to 100 nM

SMILES: CCCCCCCCCCCCCCCCCC(=O)NCCC(=O)N[C@@H](CCCCN)C(=O)N[C@@H](CCC(N)=O)C(=O)N[C@H]1CSCc2ccccc2CSC[C@@H](C(=O)N[C@@H](CC(C)C)C(=O)N2CCC[C@H]2C(N)=O)NC(=O)[C@H](CCC(=O)O)NC(=O)CNC(=O)[C@H]([C@@H](C)O)NC(=O)[C@H](CCC(=O)O)NC(=O)[C@@H]2CCCN2C(=O)[C@H](CC(=O)O)NC1=O [Example 47, {[Stearyl-βAla-Lys-Gln-Cys(&^1)-Asp-Pro-Glu-Thr-Gly-Glu-Cys(&^2)-Leu-Pro-NH2][&^1(1,2-phenylenediyl)dimethylene&^2]}]
- IC50 [1]: < 1 nM

- IC50 [1]: 1 to 100 nM
SMILES: CCCCCCCCCCCCCCCCCC(=O)NCCC(=O)N[C@@H](CC(C)C)C(=O)N[C@@H](CCC(N)=O)C(=O)N[C@H]1Cc2cccc(c2)SC[C@@H](C(=O)N[C@@H](CC(C)C)C(=O)N2CCC[C@H]2C(=O)O)NC(=O)[C@H](CCC(=O)O)NC(=O)CNC(=O)[C@H]([C@@H](C)O)NC(=O)[C@H](CCC(=O)O)NC(=O)[C@@H]2CCCN2C(=O)[C@H](CC(=O)O)NC1=O [Example 40, Stearyl-βAla-Leu-Gln-Phe(m-&^1)-Asp-Pro-Glu-Thr-Gly-Glu-Cys(&^1)-Leu-Pro-OH] ({Stearoyl-βAla}-LQ[X8]DPETGECLP-OH; thioether 3-10)

- IC50 [1]: 100 to 5000 nM
SMILES: CC(=O)N[C@H]1Cc2ccc(cc2)SC[C@@H](C(N)=O)NC(=O)[C@H](CCC(=O)O)NC(=O)CNC(=O)[C@H]([C@@H](C)O)NC(=O)[C@H](CCC(=O)O)NC(=O)[C@H](CCC(=O)O)NC(=O)[C@H](CC(=O)O)NC1=O [Example 10, Acetyl-Phe(p-&^1)-Asp-Glu-Glu-Thr-Gly-Glu-Cys(&^1)-NH2] (Ac-[Phe(4-yl)]DEETGEC-NH2; thioether 1-8)

SMILES: CC(=O)N[C@H]1CSCc2ccccc2CSC[C@@H](C(N)=O)NC(=O)[C@H](CCC(=O)O)NC(=O)CNC(=O)[C@H]([C@@H](C)O)NC(=O)[C@H](CCC(=O)O)NC(=O)[C@H](C)NC(=O)[C@H](CC(=O)O)NC1=O [Example 20, {[Acetyl-Cys(&^1)-Asp-Ala-Glu-Thr-Gly-Glu-Cys(&^2)-NH2][&^1(1,2-phenylenediyl)dimethylene&^2]}]
- IC50 [1]: 1 to 100 nM

SMILES: CC(C)C[C@H](NC(=O)[C@@H]1CSCc2cccc(c2)CSC[C@H](NC(=O)[C@H](CCC(N)=O)NC(=O)[C@@H](N)CC(C)C)C(=O)N[C@@H](CC(=O)O)C(=O)N[C@@H](CCC(=O)O)C(=O)N[C@@H](CCC(=O)O)C(=O)N[C@@H]([C@@H](C)O)C(=O)NCC(=O)N[C@@H](CCC(=O)O)C(=O)N1)C(=O)N1CCC[C@H]1C(=O)NCCC(=O)N[C@@H](Cc1ccc(O)cc1)C(=O)N[C@@H](C)C(=O)N[C@@H](CCCNC(=N)N)C(=O)N[C@@H](C)C(=O)N[C@@H](C)C(=O)N[C@@H](C)C(=O)N[C@@H](CCCNC(=N)N)C(=O)N[C@@H](CCC(N)=O)C(=O)N[C@@H](C)C(=O)N[C@@H](CCCNC(=N)N)C(=O)N[C@@H](C)C(N)=O [Example 13] (H-LQCDEETGECLP[βAla]YARAAARQARA-NH2; linker 3-10 via mXylylene)
- IC50 [1]: 1 to 100 nM

SMILES: CCCCCCCCCCCCCCCC(=O)N[C@H]1C[C@H]2C(=O)N[C@@H](CCC(N)=O)C(=O)N[C@H]3CSCc4ccccc4CSC[C@H](NC(=O)[C@H](CCC(=O)O)NC(=O)CNC(=O)[C@H]([C@@H](C)O)NC(=O)[C@H](CCC(=O)O)NC(=O)[C@@H]4CCCN4C(=O)[C@H](CC(=O)O)NC3=O)C(=O)N[C@@H](CC(C)C)C(=O)N3CCC[C@@H]3C(=O)N2C1 [Example 83, {[&^1Pro((4S)-NH-Palmitoyl)-Gln-Cys(&^2)-Asp-Pro-Glu-Thr-Gly-Glu-Cys(&^3)-Leu-D-Pro&^1][&^2(1,2-phenylenediyl)dimethylene&^3]}]
- IC50: < 1 nM

SMILES: CC(C)C[C@@H]1NC(=O)[C@@H]2CCCN2C(=O)[C@H](CC(C)C)NC(=O)[C@@H]2CSCc3ccc(cc3)CSC[C@H](NC(=O)[C@H](CCC(N)=O)NC1=O)C(=O)N[C@@H](CC(=O)O)C(=O)N[C@@H](CCC(=O)O)C(=O)N[C@@H](CCC(=O)O)C(=O)N[C@@H]([C@@H](C)O)C(=O)NCC(=O)N[C@@H](CCC(=O)O)C(=O)N2 [Example 5, {[&^1Leu-Gln-Cys(&^2)-Asp-Glu-Glu-Thr-Gly-Glu-Cys(&^3)-Leu-Pro&^1][&^2(1,4-phenylenediyl)dimethylene&^3]}] (cyclo(CDEETGECLPLQ); linker 1-8 via pXylylene)
- IC50: 1 to 100 nM

SMILES: CCCCCCCCCCCCCCCCCC(=O)NCCCC[C@@H]1NC(=O)[C@H]2CCCN2C(=O)[C@H](CC(C)C)NC(=O)[C@@H]2CSCc3ccccc3CSC[C@H](NC(=O)[C@H](CCC(N)=O)NC1=O)C(=O)N[C@@H](CC(=O)O)C(=O)N1CCC[C@H]1C(=O)N[C@@H](CCC(=O)O)C(=O)N[C@@H]([C@@H](C)O)C(=O)NCC(=O)N[C@@H](CCC(=O)O)C(=O)N2 [Example 91, {[&^1Lys(N^6-Stearyl)-Gln-Cys(&^2)-Asp-Pro-Glu-Thr-Gly-Glu-Cys(&^3)-Leu-D-Pro&^1][&^2(1,2-phenylenediyl)dimethylene&^3]}]
- IC50: < 1 nM

SMILES: CC(C)C[C@H](NC(=O)[C@@H]1CSCc2ccccc2CSC[C@H](NC(=O)[C@H](CCC(N)=O)NC(=O)[C@@H](N)CC(C)C)C(=O)N[C@@H](CC(=O)O)C(=O)N2CCC[C@H]2C(=O)N[C@@H](CCC(=O)O)C(=O)N[C@@H]([C@@H](C)O)C(=O)NCC(=O)N[C@@H](CCC(=O)O)C(=O)N1)C(=O)N1CCC[C@H]1C(=O)NCCC(=O)N[C@@H](CCCNC(=N)N)C(=O)N[C@@H](CCCCN)C(=O)N[C@@H](CCCCN)C(=O)N[C@@H](CCCNC(=N)N)C(=O)N[C@@H](CCCNC(=N)N)C(=O)N[C@@H](CCC(N)=O)C(=O)N[C@@H](CCCNC(=N)N)C(=O)N[C@@H](CCCNC(=N)N)C(=O)N[C@@H](CCCNC(=N)N)C(N)=O [Example 34]
- IC50 [1]: 1 to 100 nM

SMILES: CCCCCCCCCCCCCCCCCC(=O)N[C@H]1C[C@H]2C(=O)N[C@@H](CCC(N)=O)C(=O)N[C@H]3CSCc4ccccc4CSC[C@H](NC(=O)[C@H](CCC(=O)O)NC(=O)CNC(=O)[C@H]([C@@H](C)O)NC(=O)[C@H](CCC(=O)O)NC(=O)[C@@H]4CSCN4C(=O)[C@H](CC(=O)O)NC3=O)C(=O)N[C@@H](CC(C)C)C(=O)N3CCC[C@@H]3C(=O)N2C1 [Example 78, {[&^1Pro((4S)-NH-Stearyl)-Gln-Cys(&^2)-Asp-Thz-Glu-Thr-Gly-Glu-Cys(&^3)-Leu-D-Pro&^1][&^2(1,2-phenylenediyl)dimethylene&^3]}]
- IC50 [1]: < 1 nM

SMILES: CC(C)C[C@H](NC(=O)[C@@H]1CSCc2cccc(c2)CSC[C@H](NC(=O)[C@H](CCC(N)=O)NC(=O)[C@@H](N)CC(C)C)C(=O)N[C@@H](CC(=O)O)C(=O)N[C@@H](CCC(=O)O)C(=O)N[C@@H](CCC(=O)O)C(=O)N[C@@H]([C@@H](C)O)C(=O)NCC(=O)N[C@@H](CCC(=O)O)C(=O)N1)C(=O)N1CCC[C@H]1C(=O)O [Example 3, {[H-Leu-Gln-Cys(&^1)-Asp-Glu-Glu-Thr-Gly-Glu-Cys(&^2)-Leu-Pro-OH][&^1(1,3-phenylenediyl)dimethylene&^2]}] (H-LQCDEETGECLP-OH; linker 3-10 via mXylylene)
- IC50 [1]: 1 to 100 nM

SMILES: CCCCCCCC/C=C\CCCCCCCC(=O)N[C@H]1C[C@H]2C(=O)N[C@@H](CCC(N)=O)C(=O)N[C@H]3CSCc4ccccc4CSC[C@H](NC(=O)[C@H](CCC(=O)O)NC(=O)CNC(=O)[C@H]([C@@H](C)O)NC(=O)[C@H](CCC(=O)O)NC(=O)[C@@H]4CCCN4C(=O)[C@H](CC(=O)O)NC3=O)C(=O)N[C@@H](CC(C)C)C(=O)N3CCC[C@@H]3C(=O)N2C1 [Example 88, {[&^1Pro((4S)-NH-oleyl)-Gln-Cys(&^2)-Asp-Pro-Glu-Thr-Gly-Glu-Cys(&^3)-Leu-D-Pro&^1][&^2(1,2-phenylenediyl)dimethylene&^3]}]
- IC50: < 1 nM

SMILES: CC(C)C[C@H](NC(=O)[C@@H]1CSCc2cccc(c2)CSC[C@H](NC(=O)[C@H](CCC(N)=O)NC(=O)[C@@H](N)CC(C)C)C(=O)N[C@@H](CC(=O)O)C(=O)N[C@@H](C)C(=O)N[C@@H](CCC(=O)O)C(=O)N[C@@H]([C@@H](C)O)C(=O)NCC(=O)N[C@@H](CCC(=O)O)C(=O)N1)C(=O)N1CCC[C@H]1C(=O)O [Example 14, {[H-Leu-Gln-Cys(&^1)-Asp-Ala-Glu-Thr-Gly-Glu-Cys(&^2)-Leu-Pro-OH][&^1(1,3-phenylenediyl)dimethylene&^2]}] (H-LQCDAETGECLP-OH; linker 3-10 via mXylylene)
- IC50 [1]: < 1 nM
